Source: the NIST ThermoML archive (doi:10.1016/j.tca.2013.03.017)

Tests used:
[1] = molar heat capacity at constant pressure; xn = mol fraction of the nth substance listed; conditions: 101 kPa, Liquid, Small sample (50 mg) DSC
[2] = xn = mol fraction of the nth substance listed; conditions: 101 kPa, Liquid, Hot wire method

O=S1(=O)CCCC1 [sulfolane] + O
Conditions	molar heat capacity at constant pressure, [1] [J/K/mol]	thermal conductivity, [2] [W/m/K]
303.15 K, x1 = 0.1	87.62	0.3861
303.15 K, x1 = 0.198	99.49	0.296
303.15 K, x1 = 0.299	112	0.2563
303.15 K, x1 = 0.397	123.4	0.2358
303.15 K, x1 = 0.493	133.8	0.2206
303.15 K, x1 = 0.6	144.9	0.2028
303.15 K, x1 = 0.699	154.4	0.1911
303.15 K, x1 = 0.8	163.7	0.1809
303.15 K, x1 = 0.899	172.4	0.1739
303.15 K, x1 = 1	181.5	0.1678
313.15 K, x1 = 0.1	88.47	0.3969
313.15 K, x1 = 0.198	100.9	0.2979
313.15 K, x1 = 0.299	113.9	0.2583
313.15 K, x1 = 0.397	125.6	0.2334
313.15 K, x1 = 0.493	136.4	0.22
313.15 K, x1 = 0.6	148	0.2012
313.15 K, x1 = 0.699	157.9	0.1896
313.15 K, x1 = 0.8	167.2	0.1797
313.15 K, x1 = 0.899	176	0.1719
313.15 K, x1 = 1	185.1	0.1656
323.15 K, x1 = 0.1	89.1	0.4026
323.15 K, x1 = 0.198	102.2	0.2965
323.15 K, x1 = 0.299	115.3	0.2558
323.15 K, x1 = 0.397	127.5	0.2316
323.15 K, x1 = 0.493	138.8	0.2167
323.15 K, x1 = 0.6	150.6	0.1993
323.15 K, x1 = 0.699	160.9	0.1883
323.15 K, x1 = 0.8	170.9	0.1788
323.15 K, x1 = 0.899	179.7	0.1715
323.15 K, x1 = 1	188.7	0.1634
333.15 K, x1 = 0.1	89.75	0.4084
333.15 K, x1 = 0.198	103.6	0.295
333.15 K, x1 = 0.299	117.3	0.2507
333.15 K, x1 = 0.397	129.9	0.2304
333.15 K, x1 = 0.493	141.5	0.2133
333.15 K, x1 = 0.6	153.8	0.1986
333.15 K, x1 = 0.699	164.5	0.1876
333.15 K, x1 = 0.8	174.3	0.1779
333.15 K, x1 = 0.899	183.3	0.1699
333.15 K, x1 = 1	192.3	0.1616
343.15 K, x1 = 0.1	90.42	0.4085
343.15 K, x1 = 0.198	104.5	0.2893
343.15 K, x1 = 0.299	118.5	0.2417
343.15 K, x1 = 0.397	131.7	0.2229
343.15 K, x1 = 0.493	143.5	0.2092
343.15 K, x1 = 0.6	155.8	0.1966
343.15 K, x1 = 0.699	166.4	0.1852
343.15 K, x1 = 0.8	176.4	0.1765
343.15 K, x1 = 0.899	185.6	0.1676
343.15 K, x1 = 1	194.3	0.1593
353.15 K, x1 = 0.1	91.42	0.4058
353.15 K, x1 = 0.198	106.2	0.287
353.15 K, x1 = 0.299	120.8	0.2399
353.15 K, x1 = 0.397	134	0.2185
353.15 K, x1 = 0.493	146.1	0.204
353.15 K, x1 = 0.6	158.8	0.1921
353.15 K, x1 = 0.699	169.6	0.1817
353.15 K, x1 = 0.8	179.9	0.173
353.15 K, x1 = 0.899	189.2	0.1657
353.15 K, x1 = 1	197.8	0.1581
